Key:
human epilepsy = details: adjunctive therapy or monotherapy; clinical trials; cited from earlier work
Male Long-Evans rats = assay: Neurologic assessment in rat cardiac arrest (global ischemia) model; type: in vivo; details: conditions of Table 1
Method: Male Long-Evans rats (250 g) were obtained from Charles River Laboratories, Portage, Mich. The neurologic function and seizure susceptibility of each animal was tested according to the methods described below. The rats were housed in the experimental laboratory for at least 24 h prior to study to avoid transit stress and to ensure a 24-h fasting period. Only rats with blood glucose levels of 100 mg/dL or less at the end of fasting were used in the experiments.
General anesthesia was induced with ketamine (100 mg/kg, ip) and maintained with small fractional supplements as needed. Tracheal intubation was performed using a custom-made fiberoptic rodent laryngoscope and a 14-gauge polyethylene catheter. Needle electrodes were inserted in the scalp and thorax to monitor the EEG and ECG, respectively, while blood pressure was measured via an indwelling femoral arterial cannula. Body and brain temperatures were monitored by thermistors placed in the rectum and temporalis muscle, respectively. […]
Neurologic assessment was identical to that described for the use with this model by Wauquier et al. (Neuropharmacology 1989; 28(8):837-846). […] In addition to the neurodeficit score, the angle of inclination at which the rat could no longer cling to the inclined plane was determined. Performance was quantified as percent of preinsult baseline.

Row | Compound | efficacy in treating simple and complex partial seizures and secondarily generalized seizures (human epilepsy) | detrimental effect on exploratory behavior (effect in words) (Male Long-Evans rats) | ischemia-induced neurological deficit (effect in words) (Male Long-Evans rats)
1 | CC1(C)O[C@@H]2[C@@H](CO[C@@]3(COS(N)(=O)=O)OC(C)(C)O[C@@H]23)O1 [topiramate, 2,3:4,5-bis-O-(1-methylethylidene)-β-D-fructopyranose sulfamate] | effective |  | 
2 | CC1(C)O[C@H]2[C@@H]3OS(=O)(=O)O[C@@H]3CO[C@@]2(COS(N)(=O)=O)O1 [RWJ-37947] |  | significantly reduced | significantly reduced

Reference: patent US6495523B1, “Tricyclic monosaccharide derivatives useful in treating acute ischemia-induced neurodegeneration” (Ortho McNeil-Pharmaceutical, Inc., priority 1999, dated 2002)
